In the NIST ThermoML archive (doi:10.1016/j.jct.2017.08.004):

Experiment: molar heat capacity at constant pressure
Conditions: 101.33 kPa, Crystal

OC[C@@H](O)[C@@H](O)CO [meso-1,2,3,4-butanetetrol]
Conditions | molar heat capacity at constant pressure [J/K/mol]
1 K, relaxation calorimetry | 0.00103
1.924 K, relaxation calorimetry | 0.005451
2 K, relaxation calorimetry | 0.006099
2.124 K, relaxation calorimetry | 0.007391
2.347 K, relaxation calorimetry | 0.009418
2.604 K, relaxation calorimetry | 0.01294
2.892 K, relaxation calorimetry | 0.01782
3 K, relaxation calorimetry | 0.01982
3.203 K, relaxation calorimetry | 0.02425
3.549 K, relaxation calorimetry | 0.03325
3.937 K, relaxation calorimetry | 0.04561
4 K, relaxation calorimetry | 0.04786
4.364 K, relaxation calorimetry | 0.06293
4.842 K, relaxation calorimetry | 0.08785
5 K, relaxation calorimetry | 0.09724
5.372 K, relaxation calorimetry | 0.1225
5.959 K, relaxation calorimetry | 0.1717
6 K, relaxation calorimetry | 0.1763
6.613 K, relaxation calorimetry | 0.2418
7 K, relaxation calorimetry | 0.2944
7.34 K, relaxation calorimetry | 0.3445
8 K, relaxation calorimetry | 0.4614
8.147 K, relaxation calorimetry | 0.493
9 K, relaxation calorimetry | 0.6863
9.042 K, relaxation calorimetry | 0.6996
10 K, relaxation calorimetry | 0.9714
10.11 K, relaxation calorimetry | 0.9995
11.21 K, relaxation calorimetry | 1.394
12.45 K, relaxation calorimetry | 1.929
13.81 K, relaxation calorimetry | 2.607
15 K, relaxation calorimetry | 3.273
15.35 K, relaxation calorimetry | 3.484
17.04 K, relaxation calorimetry | 4.582
18.93 K, relaxation calorimetry | 5.892
20 K, relaxation calorimetry | 6.679
21.01 K, relaxation calorimetry | 7.451
23.34 K, relaxation calorimetry | 9.268
25 K, relaxation calorimetry | 10.62
25.88 K, relaxation calorimetry | 11.3
28.73 K, relaxation calorimetry | 13.63
30 K, relaxation calorimetry | 14.7
31.9 K, relaxation calorimetry | 16.25
35 K, relaxation calorimetry | 18.79
35.42 K, relaxation calorimetry | 19.19
39.33 K, relaxation calorimetry | 22.36
40 K, relaxation calorimetry | 22.84
43.67 K, relaxation calorimetry | 25.77
45 K, relaxation calorimetry | 26.81
48.45 K, relaxation calorimetry | 29.39
50 K, relaxation calorimetry | 30.63
53.77 K, relaxation calorimetry | 33.35
55 K, relaxation calorimetry | 34.26
59.7 K, relaxation calorimetry | 37.69
60 K, relaxation calorimetry | 37.94
65 K, relaxation calorimetry | 41.5
66.26 K, relaxation calorimetry | 42.34
70 K, relaxation calorimetry | 44.95
73.58 K, relaxation calorimetry | 47.19
75 K, relaxation calorimetry | 48.3
80 K, relaxation calorimetry | 51.54
81.69 K, relaxation calorimetry | 52.8
85 K, relaxation calorimetry | 54.68
90 K, relaxation calorimetry | 57.74
90.67 K, relaxation calorimetry | 58.3
95 K, relaxation calorimetry | 60.72
100 K, relaxation calorimetry | 63.64
100.62 K, relaxation calorimetry | 63.74
110 K, relaxation calorimetry | 69.28
110.75 K, relaxation calorimetry | 69.63
120 K, relaxation calorimetry | 74.73
120.81 K, relaxation calorimetry | 75.51
130 K, relaxation calorimetry | 80.03
130.85 K, relaxation calorimetry | 80.63
140 K, relaxation calorimetry | 85.23
140.98 K, relaxation calorimetry | 85.76
150 K, relaxation calorimetry | 90.34
151.1 K, relaxation calorimetry | 90.49
160 K, relaxation calorimetry | 95.4
161.19 K, relaxation calorimetry | 95.3
170 K, relaxation calorimetry | 100.41
171.29 K, relaxation calorimetry | 100.67
180 K, relaxation calorimetry | 105.4
181.37 K, relaxation calorimetry | 106.96
188.15 K, Small sample (50 mg) DSC | 104.81
189.15 K, Small sample (50 mg) DSC | 105.65
190 K, relaxation calorimetry | 110.37
190.15 K, Small sample (50 mg) DSC | 106.41
191.15 K, Small sample (50 mg) DSC | 107.06
191.45 K, relaxation calorimetry | 111.84
192.15 K, Small sample (50 mg) DSC | 107.53
193.15 K, Small sample (50 mg) DSC | 107.94
194.15 K, Small sample (50 mg) DSC | 108.84
195.15 K, Small sample (50 mg) DSC | 109.73
196.15 K, Small sample (50 mg) DSC | 110.56
197.15 K, Small sample (50 mg) DSC | 111.25
198.15 K, Small sample (50 mg) DSC | 111.77
199.15 K, Small sample (50 mg) DSC | 112.42
200 K, relaxation calorimetry | 115.34
200.15 K, Small sample (50 mg) DSC | 113.07
201.15 K, Small sample (50 mg) DSC | 113.73
201.6 K, relaxation calorimetry | 116.2
202.15 K, Small sample (50 mg) DSC | 114.29
203.15 K, Small sample (50 mg) DSC | 114.78
204.15 K, Small sample (50 mg) DSC | 115.4
205.15 K, Small sample (50 mg) DSC | 115.95
206.15 K, Small sample (50 mg) DSC | 116.45
207.15 K, Small sample (50 mg) DSC | 116.98
208.15 K, Small sample (50 mg) DSC | 117.43
209.15 K, Small sample (50 mg) DSC | 117.85
210 K, relaxation calorimetry | 120.31
210.15 K, Small sample (50 mg) DSC | 118.46
211.15 K, Small sample (50 mg) DSC | 119.05
211.7 K, relaxation calorimetry | 120.82
212.15 K, Small sample (50 mg) DSC | 119.45
213.15 K, Small sample (50 mg) DSC | 120.03
214.15 K, Small sample (50 mg) DSC | 120.6
215.15 K, Small sample (50 mg) DSC | 120.96
216.15 K, Small sample (50 mg) DSC | 121.61
217.15 K, Small sample (50 mg) DSC | 122.09
218.15 K, Small sample (50 mg) DSC | 122.56
219.15 K, Small sample (50 mg) DSC | 123.25
220 K, relaxation calorimetry | 125.28
220.15 K, Small sample (50 mg) DSC | 123.79
221.15 K, Small sample (50 mg) DSC | 124.32
221.79 K, relaxation calorimetry | 126.14
222.15 K, Small sample (50 mg) DSC | 124.76
223.15 K, Small sample (50 mg) DSC | 125.31
224.15 K, Small sample (50 mg) DSC | 125.9
225.15 K, Small sample (50 mg) DSC | 126.32
226.15 K, Small sample (50 mg) DSC | 126.8
227.15 K, Small sample (50 mg) DSC | 127.31
228.15 K, Small sample (50 mg) DSC | 127.86
229.15 K, Small sample (50 mg) DSC | 128.26
230 K, relaxation calorimetry | 130.27
230.15 K, Small sample (50 mg) DSC | 128.74
231.15 K, Small sample (50 mg) DSC | 129.25
231.89 K, relaxation calorimetry | 131.18
232.15 K, Small sample (50 mg) DSC | 129.79
233.15 K, Small sample (50 mg) DSC | 130.29
234.15 K, Small sample (50 mg) DSC | 130.84
235.15 K, Small sample (50 mg) DSC | 131.47
236.15 K, Small sample (50 mg) DSC | 132.03
237.15 K, Small sample (50 mg) DSC | 132.65
238.15 K, Small sample (50 mg) DSC | 133.18
239.15 K, Small sample (50 mg) DSC | 133.62
240 K, relaxation calorimetry | 135.27
240.15 K, Small sample (50 mg) DSC | 134.1
241.15 K, Small sample (50 mg) DSC | 134.58
241.92 K, relaxation calorimetry | 136.06
242.15 K, Small sample (50 mg) DSC | 135
243.15 K, Small sample (50 mg) DSC | 135.48
244.15 K, Small sample (50 mg) DSC | 135.91
245.15 K, Small sample (50 mg) DSC | 136.33
246.15 K, Small sample (50 mg) DSC | 136.8
247.15 K, Small sample (50 mg) DSC | 137.31
248.15 K, Small sample (50 mg) DSC | 137.82
249.15 K, Small sample (50 mg) DSC | 138.21
250 K, relaxation calorimetry | 140.29
250.15 K, Small sample (50 mg) DSC | 138.96
251.15 K, Small sample (50 mg) DSC | 139.41
251.99 K, relaxation calorimetry | 141.26
252.15 K, Small sample (50 mg) DSC | 139.85
253.15 K, Small sample (50 mg) DSC | 140.35
254.15 K, Small sample (50 mg) DSC | 140.97
255.15 K, Small sample (50 mg) DSC | 141.49
256.15 K, Small sample (50 mg) DSC | 142.02
257.15 K, Small sample (50 mg) DSC | 142.62
258.15 K, Small sample (50 mg) DSC | 143.2
259.15 K, Small sample (50 mg) DSC | 143.78
260 K, relaxation calorimetry | 145.33
260.15 K, Small sample (50 mg) DSC | 144.21
261.15 K, Small sample (50 mg) DSC | 144.74
262.11 K, relaxation calorimetry | 146.2
262.15 K, Small sample (50 mg) DSC | 145.34
263.15 K, Small sample (50 mg) DSC | 145.66
